Data published in KR20150001353A, “Fms 키나아제 저해 활성을 갖는 피리미딘 유도체” (한미약품 주식회사, priority 2013, dated 2015).

Tests used:
[1] = system: M-NFS-60 cell line (M-NFS-60 세포주); assay: M-NFS-60 cell line evaluation (Test Example 2; MTT, CellTiter 96 Assay); assay type: cell-based; conditions: recombinant M-CSF 20 ng/mL, 5% FBS, compound 10 μM to 0.1 nM, 590 nm
[2] = target: T1, recombinant human FMS kinase (재조합 인간 FMS 키나아제) (Homo sapiens, UniProt P07333); assay: FMS kinase inhibitory activity evaluation (Test Example 1; FRET, Z'-Lyte kinase assay-Tyr 1 peptide kit); assay type: biochemical; conditions: 0.3 µg/mL FMS, 150 μM ATP, room temperature, 1 h
T1 construct: purchased Invitrogen pv3249
T1 sequence (P07333 20-972): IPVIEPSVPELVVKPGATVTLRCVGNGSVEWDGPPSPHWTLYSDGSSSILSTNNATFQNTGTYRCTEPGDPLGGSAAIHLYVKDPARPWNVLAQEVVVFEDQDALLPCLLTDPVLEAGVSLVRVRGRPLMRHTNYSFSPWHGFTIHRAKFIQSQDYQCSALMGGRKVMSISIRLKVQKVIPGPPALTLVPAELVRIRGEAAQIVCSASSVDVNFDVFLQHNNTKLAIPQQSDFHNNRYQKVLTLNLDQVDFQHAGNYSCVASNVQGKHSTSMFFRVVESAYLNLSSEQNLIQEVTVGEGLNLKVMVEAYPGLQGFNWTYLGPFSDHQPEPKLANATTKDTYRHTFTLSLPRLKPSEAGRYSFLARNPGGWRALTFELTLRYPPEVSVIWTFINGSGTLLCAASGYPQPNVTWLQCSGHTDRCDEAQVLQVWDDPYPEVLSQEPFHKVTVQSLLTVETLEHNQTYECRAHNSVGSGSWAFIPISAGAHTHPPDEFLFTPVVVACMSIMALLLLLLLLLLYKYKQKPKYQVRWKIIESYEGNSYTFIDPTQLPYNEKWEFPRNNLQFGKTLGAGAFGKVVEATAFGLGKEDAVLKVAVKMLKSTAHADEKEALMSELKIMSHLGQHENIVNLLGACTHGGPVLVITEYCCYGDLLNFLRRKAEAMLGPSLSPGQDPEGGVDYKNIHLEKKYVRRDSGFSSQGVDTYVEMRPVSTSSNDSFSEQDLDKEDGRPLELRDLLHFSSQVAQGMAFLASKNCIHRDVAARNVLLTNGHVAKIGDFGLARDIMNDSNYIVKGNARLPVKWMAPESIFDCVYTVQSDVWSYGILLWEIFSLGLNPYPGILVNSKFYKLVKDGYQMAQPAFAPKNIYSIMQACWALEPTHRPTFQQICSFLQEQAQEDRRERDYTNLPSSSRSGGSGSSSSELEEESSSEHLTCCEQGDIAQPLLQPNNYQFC

IC50 [2]	Structure (SMILES)	IC50 [1]
14 nM	COc1cccc(Cn2nc(C)c3c(NC(=O)N(C)c4cc(N)ncn4)cccc32)c1 [실시예 18, 1-(6-아미노피리미딘-4-일)-3-(1-(3-메톡시벤질)-3-메틸-1H-인다졸-4-일)-1-메틸우레아]	201 nM
65 nM	COc1ccc(CNc2cc(N(C)C(=O)Nc3cccc4c3c(C)nn4Cc3cccc(F)n3)ncn2)c(OC)c1 [실시예 9, 1-(6-(2,4-디메톡시벤질아미노)피리미딘-4-일)-3-(1-((6-플루오로피리딘-2-일)메틸)-3-메틸-1H-인다졸-4-일)-1-메틸우레아]	
